According to ChEMBL document CHEMBL1909046, “DrugMatrix in vitro pharmacology data”:
pIC50, pKi: −log10 of the molar value.

Key:
[1] = DRUGMATRIX: GABAA, Muscimol, Central radioligand binding (ligand: [3H] Muscimol); type: cell membranes, Rattus norvegicus, Wistar, Brain, Membrane; details: Not Active = under 50% inhibition at 10 µM
[2] = biological target: D(3) dopamine receptor (Homo sapiens, UniProt P35462); test: DRUGMATRIX: Dopamine D3 radioligand binding (ligand: [3H] Spiperone); type: cell membranes, CHO, Membrane; details: for IC50: cho; for pIC50: read-out: IC50; for pKi: read-out: Ki
Sequence of D(3) dopamine receptor (P35462 whole entry): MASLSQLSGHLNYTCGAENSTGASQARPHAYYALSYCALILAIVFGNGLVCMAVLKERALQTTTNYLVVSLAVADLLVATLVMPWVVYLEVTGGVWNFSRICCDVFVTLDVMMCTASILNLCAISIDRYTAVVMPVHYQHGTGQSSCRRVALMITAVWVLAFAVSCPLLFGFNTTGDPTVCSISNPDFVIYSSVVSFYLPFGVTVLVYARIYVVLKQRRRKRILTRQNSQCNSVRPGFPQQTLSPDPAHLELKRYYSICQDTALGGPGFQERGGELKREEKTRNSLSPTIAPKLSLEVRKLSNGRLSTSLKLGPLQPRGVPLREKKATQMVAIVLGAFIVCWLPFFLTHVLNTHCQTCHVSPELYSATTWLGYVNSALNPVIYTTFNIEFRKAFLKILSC

[3] = biological target: Mu-type opioid receptor (Homo sapiens, UniProt P35372); test: DRUGMATRIX: Opiate mu (OP3, MOP) radioligand binding (ligand: [3H] Diprenorphine); type: cell membranes, CHO-K1, Membrane; details: Not Active = under 50% inhibition at 10 µM; for IC50: cho-k1; for pIC50: read-out: IC50
Sequence of Mu-type opioid receptor (P35372 whole entry): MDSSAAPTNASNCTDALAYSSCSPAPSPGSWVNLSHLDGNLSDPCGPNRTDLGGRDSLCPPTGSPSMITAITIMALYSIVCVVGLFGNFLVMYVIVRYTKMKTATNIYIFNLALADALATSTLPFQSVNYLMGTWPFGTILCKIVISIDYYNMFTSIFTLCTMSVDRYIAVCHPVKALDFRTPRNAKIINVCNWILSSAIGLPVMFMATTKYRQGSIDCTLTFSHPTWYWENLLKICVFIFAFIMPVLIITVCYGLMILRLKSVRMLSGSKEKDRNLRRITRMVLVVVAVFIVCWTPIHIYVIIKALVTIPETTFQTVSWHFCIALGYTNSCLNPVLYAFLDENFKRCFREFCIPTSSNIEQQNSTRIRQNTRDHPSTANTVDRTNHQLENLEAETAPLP

[4] = DRUGMATRIX: GABAA, Chloride Channel, TBOB radioligand binding (ligand: [3H] TBOB); type: cell membranes, Rattus norvegicus, Wistar, Cerebral cortex, Membrane; details: Not Active = under 50% inhibition at 10 µM
[5] = biological target: T1, Cytochrome P450 1A2 (Homo sapiens, UniProt P05177); details: bti-tn-5b1-4; also: in other assays of this panel Not Active means under 50% inhibition at 10 µM
T1 sequence (P05177 whole entry): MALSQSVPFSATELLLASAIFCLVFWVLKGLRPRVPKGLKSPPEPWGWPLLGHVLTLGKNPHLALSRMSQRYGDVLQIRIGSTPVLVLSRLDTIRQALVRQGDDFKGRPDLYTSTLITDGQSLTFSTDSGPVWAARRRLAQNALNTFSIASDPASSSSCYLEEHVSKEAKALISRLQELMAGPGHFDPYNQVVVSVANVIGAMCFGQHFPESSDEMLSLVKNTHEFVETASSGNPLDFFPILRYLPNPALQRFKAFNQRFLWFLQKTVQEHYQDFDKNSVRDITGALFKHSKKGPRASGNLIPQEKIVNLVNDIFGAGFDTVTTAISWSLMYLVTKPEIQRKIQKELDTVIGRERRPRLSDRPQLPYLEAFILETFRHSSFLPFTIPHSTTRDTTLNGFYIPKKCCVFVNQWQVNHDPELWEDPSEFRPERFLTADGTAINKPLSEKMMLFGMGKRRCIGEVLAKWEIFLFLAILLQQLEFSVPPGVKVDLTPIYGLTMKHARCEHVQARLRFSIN

[6] = biological target: Insulin receptor (Rattus norvegicus, UniProt P15127); type: cell membranes, Wistar, Liver, Membrane; also: in other assays of this panel Not Active means under 50% inhibition at 10 µM
Sequence of Insulin receptor (P15127 27-759 limits assumed): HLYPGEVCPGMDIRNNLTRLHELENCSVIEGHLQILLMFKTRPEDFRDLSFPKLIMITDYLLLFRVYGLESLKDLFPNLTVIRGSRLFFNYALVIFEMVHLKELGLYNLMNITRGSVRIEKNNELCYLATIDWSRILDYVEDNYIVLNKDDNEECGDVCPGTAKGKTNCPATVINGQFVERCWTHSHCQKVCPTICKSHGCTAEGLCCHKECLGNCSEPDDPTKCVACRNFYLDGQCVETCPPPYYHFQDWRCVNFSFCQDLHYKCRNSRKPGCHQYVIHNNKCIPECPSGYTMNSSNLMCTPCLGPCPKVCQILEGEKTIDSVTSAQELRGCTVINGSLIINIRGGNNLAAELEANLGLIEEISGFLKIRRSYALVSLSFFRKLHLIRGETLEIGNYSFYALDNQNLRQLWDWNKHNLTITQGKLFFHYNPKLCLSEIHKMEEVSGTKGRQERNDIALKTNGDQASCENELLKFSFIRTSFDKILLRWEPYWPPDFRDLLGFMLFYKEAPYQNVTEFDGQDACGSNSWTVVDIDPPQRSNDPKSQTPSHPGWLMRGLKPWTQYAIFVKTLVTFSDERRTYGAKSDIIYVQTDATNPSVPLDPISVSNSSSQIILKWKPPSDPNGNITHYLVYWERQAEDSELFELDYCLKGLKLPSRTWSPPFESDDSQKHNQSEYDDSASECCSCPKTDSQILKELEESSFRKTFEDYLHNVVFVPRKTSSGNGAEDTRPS
Sequence of Insulin receptor (P15127 764-1383 limits assumed): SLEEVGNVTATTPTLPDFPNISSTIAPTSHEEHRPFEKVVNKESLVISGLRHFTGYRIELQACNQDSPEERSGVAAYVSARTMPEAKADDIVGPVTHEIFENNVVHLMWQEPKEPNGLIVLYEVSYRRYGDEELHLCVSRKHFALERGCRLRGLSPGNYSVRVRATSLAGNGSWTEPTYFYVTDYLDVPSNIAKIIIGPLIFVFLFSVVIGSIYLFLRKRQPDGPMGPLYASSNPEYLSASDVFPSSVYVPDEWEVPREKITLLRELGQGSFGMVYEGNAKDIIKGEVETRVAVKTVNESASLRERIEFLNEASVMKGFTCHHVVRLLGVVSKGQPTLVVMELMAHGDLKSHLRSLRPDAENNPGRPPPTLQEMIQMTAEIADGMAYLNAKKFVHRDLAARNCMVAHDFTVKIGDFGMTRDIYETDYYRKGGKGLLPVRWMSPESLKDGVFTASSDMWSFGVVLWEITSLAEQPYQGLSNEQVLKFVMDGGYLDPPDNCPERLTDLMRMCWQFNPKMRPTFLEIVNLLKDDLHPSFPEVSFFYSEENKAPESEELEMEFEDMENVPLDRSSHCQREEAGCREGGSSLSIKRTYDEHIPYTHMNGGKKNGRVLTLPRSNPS

SMILES	IC50 [1]	Ki [1]	IC50 [2]	IC50 [3]	IC50 [4]	Ki [4]	IC50 [5]	Ki [5]	IC50 [6]	pIC50 [2]	pKi [2]	pKi [3]	pIC50 [3]
CC[C@]1(O)CC[C@H]2[C@@H]3CCC4=CCCC[C@@H]4[C@H]3CC[C@@]21C	Not Active	Not Active	Not Active	Not Active	Not Active	Not Active	Not Active	Not Active	Not Active	–	–	–	–
N[C@@H](Cc1ccc(F)cc1)C(=O)O	Not Active	Not Active	Not Active	Not Active	Not Active	Not Active	–	–	Not Active	–	–	–	–
CCOC(=O)[C@H](CCc1ccccc1)N[C@@H](C)C(=O)N1CCC[C@H]1C(=O)O	Not Active	Not Active	Not Active	Not Active	Not Active	Not Active	Not Active	Not Active	Not Active	–	–	–	–
C=C1/C(=C\C=C2/CCC[C@]3(C)[C@@H]([C@H](C)CCCC(C)C)CC[C@@H]23)C[C@@H](O)C[C@@H]1O [ALFACALCIDOL]	Not Active	Not Active	Not Active	Not Active	Not Active	Not Active	Not Active	Not Active	Not Active	–	–	–	–
C[C@@H]1CC[C@H]2[C@@H](C)C(=O)O[C@@H]3O[C@@]4(C)CC[C@@H]1[C@]32OO4 [ARTEMISININ]	Not Active	Not Active	Not Active	Not Active	Not Active	Not Active	–	–	Not Active	–	–	–	–
[N-]=[N+]=CC(=O)OC[C@H](N)C(=O)O [AZASERINE]	Not Active	Not Active	Not Active	Not Active	Not Active	Not Active	Not Active	Not Active	Not Active	–	–	–	–
CC(C)C[C@H]1C(=O)N2CCC[C@H]2[C@]2(O)O[C@](NC(=O)[C@@H]3C=C4c5cccc6[nH]c(Br)c(c56)C[C@H]4N(C)C3)(C(C)C)C(=O)N12 [BROMOCRIPTINE]	Not Active	Not Active	–	–	Not Active	Not Active	Not Active	Not Active	Not Active	9.22	9.69	–	–
O=C(/C=C/c1ccc(O)c(O)c1)OCCc1ccccc1 [CAFFEIC ACID PHENETHYL ESTER]	Not Active	Not Active	Not Active	Not Active	Not Active	Not Active	Not Active	Not Active	Not Active	–	–	–	–
Oc1ccccc1O [CATECHOL]	Not Active	Not Active	Not Active	Not Active	Not Active	Not Active	Not Active	Not Active	Not Active	–	–	–	–
CN(C(=O)CCCOc1ccc2[nH]c(=O)ccc2c1)C1CCCCC1 [CILOSTAMIDE]	Not Active	Not Active	Not Active	Not Active	Not Active	Not Active	Not Active	Not Active	Not Active	–	–	–	–
Nc1nc(Cl)nc2c1ncn2[C@H]1C[C@H](O)[C@@H](CO)O1 [CLADRIBINE]	Not Active	Not Active	Not Active	Not Active	Not Active	Not Active	Not Active	Not Active	Not Active	–	–	–	–
CC(=O)O[C@]1(C(C)=O)CC[C@H]2[C@@H]3C=C(Cl)C4=CC(=O)[C@@H]5C[C@@H]5[C@]4(C)[C@H]3CC[C@@]21C [CYPROTERONE ACETATE]	Not Active	Not Active	Not Active	–	Not Active	Not Active	Not Active	Not Active	Not Active	–	–	6.05	5.66
Nc1nc(N)nc(NC2CC2)n1 [CYROMAZINE]	Not Active	Not Active	Not Active	–	Not Active	Not Active	Not Active	Not Active	Not Active	–	–	–	–
C#C[C@]1(O)CC[C@H]2[C@@H]3CCC4=Cc5oncc5C[C@]4(C)[C@H]3CC[C@@]21C [DANAZOL]	Not Active	Not Active	–	–	Not Active	Not Active	Not Active	Not Active	Not Active	4.54	5.01	5.24	4.85
CN1C(=O)CN=C(c2ccccc2)c2cc(Cl)ccc21 [DIAZEPAM]	Not Active	Not Active	Not Active	Not Active	Not Active	Not Active	–	–	Not Active	–	–	–	–
Cc1c(N(C)CS(=O)(=O)[O-])c(=O)n(-c2ccccc2)n1C.[Na+] [DIPYRONE SODIUM]	Not Active	Not Active	Not Active	Not Active	Not Active	Not Active	Not Active	Not Active	Not Active	–	–	–	–
C#C[C@]1(O)CC[C@H]2[C@@H]3CCc4cc(O)ccc4[C@H]3CC[C@@]21C [ETHINYL ESTRADIOL]	Not Active	Not Active	Not Active	–	Not Active	Not Active	Not Active	Not Active	Not Active	–	–	4.96	4.57
COc1ccccc1OCC(O)CO (configuration not stated) [GUAIFENESIN]	Not Active	Not Active	Not Active	Not Active	Not Active	Not Active	–	–	Not Active	–	–	–	–
C[C@]12CCC(=O)C=C1CC[C@@H]1[C@@H]2[C@@H](O)C[C@@]2(C)[C@H]1CC[C@]2(O)C(=O)CO [HYDROCORTISONE]	Not Active	Not Active	Not Active	Not Active	Not Active	Not Active	Not Active	Not Active	Not Active	–	–	–	–
Cc1cccc(Nc2ccccc2C(=O)O)c1C [MEFENAMIC ACID]	Not Active	Not Active	Not Active	Not Active	Not Active	Not Active	Not Active	Not Active	Not Active	–	–	–	–
COc1ccc2cc(CCC(C)=O)ccc2c1 [NABUMETONE]	Not Active	Not Active	Not Active	Not Active	Not Active	Not Active	–	–	Not Active	–	–	–	–
O=C(O)c1cccnc1 [NIACIN]	Not Active	Not Active	Not Active	Not Active	Not Active	Not Active	Not Active	Not Active	Not Active	–	–	–	–
CNC(=C[N+](=O)[O-])NCCSCc1csc(CN(C)C)n1 [NIZATIDINE]	Not Active	Not Active	Not Active	Not Active	Not Active	Not Active	Not Active	Not Active	Not Active	–	–	–	–
COc1ccc(Cc2nccc3cc(OC)c(OC)cc23)cc1OC [PAPAVERINE]	Not Active	Not Active	Not Active	–	Not Active	Not Active	Not Active	Not Active	Not Active	–	–	–	–
CC(C)(Sc1cc(C(C)(C)C)c(O)c(C(C)(C)C)c1)Sc1cc(C(C)(C)C)c(O)c(C(C)(C)C)c1 [PROBUCOL]	Not Active	Not Active	Not Active	Not Active	Not Active	Not Active	Not Active	Not Active	Not Active	–	–	–	–
